Data published in ChEMBL document CHEMBL3885861, “Open TG-GATES”.

Species: Rattus norvegicus
Assay: Open TG-GATES - Regimen: Single
Assay type: toxicity, organism-based, Sprague-Dawley
Parameters: regimen Single, gender Male, age 6 weeks
Conditions: in vivo, po, route gavage; for APTT / Bas / Eos / Fbg / Hb / Ht / Lym / MCH / MCHC / MCV / Mono / Neu / PT / Plat / RBC / Ret / WBC: tissue Blood; for KIDNEY_L / KIDNEY_R / KIDNEY_TOTAL: tissue Kidney; for LIVER: tissue Liver; for A/G / ALP / ALT / AST / BUN / CRE / Ca / Cl / DBIL / GLC / IP / K / LDH / Na / PL / RALB / TBIL / TC / TG / TP / gamma-GTP: tissue Plasma
[1] = 30 mg/kg, 3 h, dose level Middle
[2] = 30 mg/kg, 6 h, dose level Middle
[3] = 30 mg/kg, 9 h, dose level Middle
[4] = 30 mg/kg, 24 h, dose level Middle
[5] = 100 mg/kg, 3 h, dose level High
[6] = 100 mg/kg, 6 h, dose level High
[7] = 100 mg/kg, 9 h, dose level High
[8] = 100 mg/kg, 24 h, dose level High

## CC1=C(/C=C/C(C)=C/C=C/C(C)=C/CO)C(C)(C)CCC1 [RETINOL]
[1]
  TERMINAL_BW: 204 g
  APTT: 21.5 s
  Bas: 0%
  Eos: 1.2%
  Fbg: 295.2 mg/dL
  Hb: 13.2 g/dL
  Ht: 38.6%
  Lym: 77.6%
  MCH: 21.6 pg
  MCHC: 34.1%
  MCV: 63.4 fL
  Mono: 3%
  Neu: 17.6%
  PT: 15.9 s
  Plat: 124.8 x10_4/uL
  RBC: 609.8 x10_4/ul
  Ret: 8.3%
  WBC: 84.2 x10_2/uL
  KIDNEY_L: 0.9 g
  KIDNEY_R: 0.9 g
  KIDNEY_TOTAL: 1.8 g
  LIVER: 9.3 g
  A/G: 1.3
  ALP: 1939.2 IU/L
  ALT: 48.2 IU/L
  AST: 80 IU/L
  BUN: 13.4 mg/dL
  CRE: 0.1 mg/dL
  Ca: 11.3 mg/dL
  Cl: 106.2 meq/L
  DBIL: 0 mg/dL
  GLC: 176.4 mg/dL
  IP: 9 mg/dL
  K: 4.2 meq/L
  LDH: 231 IU/L
  Na: 141.2 meq/L
  PL: 165.4 mg/dL
  RALB: 3.1 g/dL
  TBIL: 0.004 mg/dL
  TC: 83.2 mg/dL
  TG: 153.8 mg/dL
  TP: 5.7 g/dL
  gamma-GTP: 3.6 IU/L
[2]
  TERMINAL_BW: 195.5 g
  APTT: 21.5 s
  Bas: 0%
  Eos: 0.8%
  Fbg: 302.4 mg/dL
  Hb: 13.4 g/dL
  Ht: 38.7%
  Lym: 77.8%
  MCH: 21.1 pg
  MCHC: 34.5%
  MCV: 61.2 fL
  Mono: 2.8%
  Neu: 17.8%
  PT: 15.5 s
  Plat: 119.2 x10_4/uL
  RBC: 633.8 x10_4/ul
  Ret: 7.3%
  WBC: 101.4 x10_2/uL
  KIDNEY_L: 0.9 g
  KIDNEY_R: 0.9 g
  KIDNEY_TOTAL: 1.8 g
  LIVER: 8.2 g
  A/G: 1.2
  ALP: 1586.8 IU/L
  ALT: 36.2 IU/L
  AST: 72.2 IU/L
  BUN: 8.8 mg/dL
  CRE: 0.1 mg/dL
  Ca: 10.8 mg/dL
  Cl: 107.6 meq/L
  DBIL: 0.004 mg/dL
  GLC: 176.8 mg/dL
  IP: 9.8 mg/dL
  K: 4.4 meq/L
  LDH: 224.8 IU/L
  Na: 142 meq/L
  PL: 146.2 mg/dL
  RALB: 3.1 g/dL
  TBIL: 0.01 mg/dL
  TC: 74.6 mg/dL
  TG: 119.6 mg/dL
  TP: 5.6 g/dL
  gamma-GTP: 1 IU/L
[3]
  TERMINAL_BW: 195.6 g
  APTT: 21.7 s
  Bas: 0%
  Eos: 1%
  Fbg: 317 mg/dL
  Hb: 13.3 g/dL
  Ht: 38.5%
  Lym: 75.2%
  MCH: 21.3 pg
  MCHC: 34.5%
  MCV: 61.8 fL
  Mono: 2.8%
  Neu: 21%
  PT: 15.5 s
  Plat: 115.9 x10_4/uL
  RBC: 623.4 x10_4/ul
  Ret: 7.7%
  WBC: 94.3 x10_2/uL
  KIDNEY_L: 0.9 g
  KIDNEY_R: 0.9 g
  KIDNEY_TOTAL: 1.8 g
  LIVER: 8.3 g
  A/G: 1.3
  ALP: 1640.4 IU/L
  ALT: 33 IU/L
  AST: 67.4 IU/L
  BUN: 10 mg/dL
  CRE: 0.2 mg/dL
  Ca: 11 mg/dL
  Cl: 106 meq/L
  DBIL: 0.008 mg/dL
  GLC: 181 mg/dL
  IP: 11.1 mg/dL
  K: 4.2 meq/L
  LDH: 253.4 IU/L
  Na: 141.2 meq/L
  PL: 136 mg/dL
  RALB: 3.1 g/dL
  TBIL: 0.014 mg/dL
  TC: 72 mg/dL
  TG: 82.6 mg/dL
  TP: 5.5 g/dL
  gamma-GTP: 1 IU/L
[4]
  TERMINAL_BW: 208 g
  APTT: 21.8 s
  Bas: 0%
  Eos: 0.6%
  Fbg: 303.2 mg/dL
  Hb: 13.1 g/dL
  Ht: 38.6%
  Lym: 79.4%
  MCH: 21.5 pg
  MCHC: 34.1%
  MCV: 63.1 fL
  Mono: 3%
  Neu: 16.2%
  PT: 15.9 s
  Plat: 124 x10_4/uL
  RBC: 612.6 x10_4/ul
  Ret: 7.8%
  WBC: 76.3 x10_2/uL
  KIDNEY_L: 0.9 g
  KIDNEY_R: 0.9 g
  KIDNEY_TOTAL: 1.9 g
  LIVER: 10.1 g
  A/G: 1.4
  ALP: 1811.2 IU/L
  ALT: 42.6 IU/L
  AST: 75.8 IU/L
  BUN: 16.6 mg/dL
  CRE: 0.2 mg/dL
  Ca: 10.8 mg/dL
  Cl: 107.2 meq/L
  DBIL: 0.002 mg/dL
  GLC: 193 mg/dL
  IP: 7.2 mg/dL
  K: 4.2 meq/L
  LDH: 242.4 IU/L
  Na: 141.6 meq/L
  PL: 148.2 mg/dL
  RALB: 3.2 g/dL
  TBIL: 0.006 mg/dL
  TC: 74.2 mg/dL
  TG: 114 mg/dL
  TP: 5.6 g/dL
  gamma-GTP: 1.2 IU/L
[5]
  TERMINAL_BW: 201.1 g
  APTT: 21.6 s
  Bas: 0%
  Eos: 1%
  Fbg: 312.4 mg/dL
  Hb: 13.3 g/dL
  Ht: 38.7%
  Lym: 77.2%
  MCH: 21.4 pg
  MCHC: 34.5%
  MCV: 62 fL
  Mono: 2.6%
  Neu: 19%
  PT: 15.7 s
  Plat: 117.7 x10_4/uL
  RBC: 625.8 x10_4/ul
  Ret: 8%
  WBC: 79.7 x10_2/uL
  KIDNEY_L: 0.9 g
  KIDNEY_R: 0.9 g
  KIDNEY_TOTAL: 1.8 g
  LIVER: 9.1 g
  A/G: 1.4
  ALP: 1910.2 IU/L
  ALT: 46 IU/L
  AST: 77 IU/L
  BUN: 13.6 mg/dL
  CRE: 0.2 mg/dL
  Ca: 11 mg/dL
  Cl: 106.2 meq/L
  DBIL: 0 mg/dL
  GLC: 182 mg/dL
  IP: 9.4 mg/dL
  K: 4 meq/L
  LDH: 219.2 IU/L
  Na: 141.2 meq/L
  PL: 157.4 mg/dL
  RALB: 3.2 g/dL
  TBIL: 0.006 mg/dL
  TC: 77 mg/dL
  TG: 153 mg/dL
  TP: 5.6 g/dL
  gamma-GTP: 1.6 IU/L
[6]
  TERMINAL_BW: 205.2 g
  APTT: 20.3 s
  Bas: 0%
  Eos: 1%
  Fbg: 292.8 mg/dL
  Hb: 13.2 g/dL
  Ht: 38.6%
  Lym: 73.8%
  MCH: 21.1 pg
  MCHC: 34.2%
  MCV: 61.8 fL
  Mono: 4.8%
  Neu: 19.8%
  PT: 15 s
  Plat: 120.3 x10_4/uL
  RBC: 625.6 x10_4/ul
  Ret: 7.8%
  WBC: 110 x10_2/uL
  KIDNEY_L: 0.9 g
  KIDNEY_R: 0.9 g
  KIDNEY_TOTAL: 1.8 g
  LIVER: 9 g
  A/G: 1.3
  ALP: 1660.6 IU/L
  ALT: 37.6 IU/L
  AST: 74 IU/L
  BUN: 10.6 mg/dL
  CRE: 0.1 mg/dL
  Ca: 11.3 mg/dL
  Cl: 105.8 meq/L
  DBIL: 0.006 mg/dL
  GLC: 190.4 mg/dL
  IP: 10.6 mg/dL
  K: 4.3 meq/L
  LDH: 212.4 IU/L
  Na: 141.8 meq/L
  PL: 147.8 mg/dL
  RALB: 3.1 g/dL
  TBIL: 0.016 mg/dL
  TC: 71.8 mg/dL
  TG: 118 mg/dL
  TP: 5.4 g/dL
  gamma-GTP: 1 IU/L
[7]
  TERMINAL_BW: 198.4 g
  APTT: 21.5 s
  Bas: 0%
  Eos: 0.8%
  Fbg: 288.4 mg/dL
  Hb: 12.8 g/dL
  Ht: 36.9%
  Lym: 72.4%
  MCH: 21.3 pg
  MCHC: 34.7%
  MCV: 61.4 fL
  Mono: 3.2%
  Neu: 22.6%
  PT: 15.5 s
  Plat: 124.3 x10_4/uL
  RBC: 601 x10_4/ul
  Ret: 7.6%
  WBC: 96.3 x10_2/uL
  KIDNEY_L: 0.9 g
  KIDNEY_R: 0.9 g
  KIDNEY_TOTAL: 1.9 g
  LIVER: 8.8 g
  A/G: 1.4
  ALP: 1745.2 IU/L
  ALT: 35.2 IU/L
  AST: 69.2 IU/L
  BUN: 9.6 mg/dL
  CRE: 0.1 mg/dL
  Ca: 11 mg/dL
  Cl: 106.4 meq/L
  DBIL: 0.014 mg/dL
  GLC: 179.6 mg/dL
  IP: 10.7 mg/dL
  K: 4.3 meq/L
  LDH: 219.6 IU/L
  Na: 141.2 meq/L
  PL: 129.2 mg/dL
  RALB: 3.1 g/dL
  TBIL: 0.016 mg/dL
  TC: 65.6 mg/dL
  TG: 91.2 mg/dL
  TP: 5.3 g/dL
  gamma-GTP: 1 IU/L
[8]
  TERMINAL_BW: 207.3 g
  APTT: 23.2 s
  Bas: 0%
  Eos: 0.8%
  Fbg: 303.6 mg/dL
  Hb: 13.3 g/dL
  Ht: 38.7%
  Lym: 79.2%
  MCH: 21.2 pg
  MCHC: 34.3%
  MCV: 61.9 fL
  Mono: 2.2%
  Neu: 16.8%
  PT: 16 s
  Plat: 117.6 x10_4/uL
  RBC: 627 x10_4/ul
  Ret: 7.3%
  WBC: 93.1 x10_2/uL
  KIDNEY_L: 0.9 g
  KIDNEY_R: 0.9 g
  KIDNEY_TOTAL: 1.8 g
  LIVER: 9.6 g
  A/G: 1.2
  ALP: 1815.8 IU/L
  ALT: 47.2 IU/L
  AST: 79 IU/L
  BUN: 14.2 mg/dL
  CRE: 0.2 mg/dL
  Ca: 10.8 mg/dL
  Cl: 106.2 meq/L
  DBIL: 0.004 mg/dL
  GLC: 193.4 mg/dL
  IP: 7.4 mg/dL
  K: 4 meq/L
  LDH: 242.4 IU/L
  Na: 140.2 meq/L
  PL: 144 mg/dL
  RALB: 3 g/dL
  TBIL: 0.006 mg/dL
  TC: 68.8 mg/dL
  TG: 155.2 mg/dL
  TP: 5.5 g/dL
  gamma-GTP: 1.8 IU/L
